For one data set, the system named is VZV TK+ YS. The data set can be described thus: VZV plaque reduction in HEL cells, TK+ strain YS. It is filed as cell-based, Varicella Zoster virus. As to conditions: Human alphaherpesvirus 3, HEL, 120 h, Table 3, plaque formation, 5 days. As to the method:
(§1) VZV-drug susceptibility assays were performed on confluent HEL cells in 96-well microtiter plates. Monolayers were infected with 20 PFU of cell-associated virus per well. For each assay, virus controls (infected-untreated cells) were included. After a 2-hour incubation period, the virus inoculum was removed and the media replaced by the different dilutions (in duplicate) of the tested molecules. Serial dilutions of test compounds were incubated with the infected monolayers for 5 days. After the 5-day incubation period, the cells were fixed and stained with Giemsa, and the level of virus-induced cytopathic effect was determined by counting the number of plaques for each dilution.

A short description of a further data set: Water-solubility by HPLC. To be noted: thermodynamic from solid; deionised water, room temperature, overnight; means of three determinations; read-out: Solubility in water. It is filed as physicochemical. As for the experimental part:
HPLC was carried out on a Waters 484 System using Novapack C18 reverse phase column. Flow rate: 1 mL/min. Detection: UV 254 nm. […] The samples were centrifuged at 14.000 rpm in an Eppendorf micro-centrifuge for 1.5 min at room temperature. An aliquot of the clear supernatant was removed and diluted to a concentration within the range of a five-point standard curve. Water-solubility was calculated from each peak area of the above solution by HPLC compared with the sample dissolved in acetonitrile, the concentration of which is already known.

The next data set has as its system VZV TK− 07/1. The data set can be described thus: VZV plaque reduction in HEL cells, TK- strain 07/1. It is filed as cell-based, Varicella Zoster virus. As for the experimental part: as §1
A further data set concerns VZV. The data set can be described thus: Anti-VZV activity in VZV-infected HEL cell cultures (general statements). The class given is cell-based, Varicella Zoster virus. To be noted: HEL cells. As for the experimental part:
The objective of this study was to compare the antiviral activity of Compounds 1, 3, 5, 7 and 9 in HEL cells inoculated with VZV strains. Antiviral activity was assessed as the ability of Compounds 1, 3, 5, 7 and 9 to reduce viral plaque formation after incubation periods of 5 days as compared to untreated control cultures.
as §1

A short description of a further data set: in vitro. It is filed as cell-based. To be noted: human.
Another data set concerns HEL cells. Kind of data set: in vitro. The class given is cell-based.
The next data set deals with VZV TK+ OKA. Kind of data set: VZV plaque reduction in HEL cells, TK+ strain OKA. It is filed as cell-based, Varicella Zoster virus. As to conditions: Human alphaherpesvirus 3, HEL, 120 h, read-out: EC50 VZV TK+ OKA, Table 3, plaque formation, 5 days. As to the method:
as §1

≈ marks a conversion by molar mass, not a printed value.

As a reminder, the solubility is how much of the substance goes into solution per volume. Broadly, the CC50 is the concentration that lowers cell viability or growth by half. Read a low CC50 as greater toxicity to the cells.

`CCCCCc1ccc(-c2cc3cn([C@H]4CC(O)[C@@H](COC(=O)C(N)C(C)C)O4)c(=O)nc3o2)cc1` (stereo partly drawn) [Compound 5, reference compound]: the EC50 with VZV TK+ YS is 0.03 µM; in the data set on VZV TK− 07/1 (Human alphaherpesvirus 3, HEL, 120 h, read-out: EC50 VZV TK− 07/1, Table 3, plaque formation, 5 days), more than 1 µM; with VZV TK+ OKA, 0.014 µM. Also, the solubility in “Water-solubility by HPLC” was determined as 211 ± 44 µg/mL (≈ 424 µM). Also, the “antiviral activity against VZV/TK− (in words)” value with VZV TK− 07/1 is recorded as “lose antiviral activity”. In addition, the “antiviral activity in VZV-infected HEL cell cultures (in words)” value with VZV is reported as “active”. Further, the CC50 in the data set “in vitro” is more than 0.5 µM. Further, the “cytotoxic or cytostatic (in words)” value in the data set on HEL cells is recorded as “Neither of them is cytotoxic or cytostatic”. For the same compound, the MCC in the data set with HEL cells (human) was more than 1 µM.

The record behind these values is patent US8912163B2, “Compositions for the treatment or prophylaxis of viral infections” (Katholieke Universiteit Leuven, priority 2007, dated 2014).
